Assay results reported in patent US20220202911A1 (Amryt Endo, Inc., priority 2020, published 2022).

Experiments:
clinical [1] = conditions: human, plasma; for AUC(0-t): AUC(0-12)
Description: (§1) This was a single-center, randomized, single-blind, placebo-controlled study in 18 healthy subjects. Two groups of subjects were studied in a 4-treatment, 2-sequence, and crossover design. The study was comprised of a screening period, a treatment period, and a follow-up period (approximately 10-13 days following the last test condition). Subjects were randomized in a 1:1 ratio to one of 2 sequences (i.e., Group 1 or 2) of 4 test conditions (i.e., A-D) as shown in Table 1.

[2] = digoxin 0.5 mg alone (placebo)
Description: as §1

clinical [3] = conditions: human, in vivo; for AUC(0-t): AUC(0-12)
[4] = oral, least squares geometric mean, digoxin alone (second geometric-mean column; no unit printed in Table 7)
[5] = least squares geometric mean, Reference
[6] = least squares geometric mean, Test

Compound	Tmax (clinical [1]; oral) [h]	AUC(0-t) (clinical [1]; oral, 0.5 mg, mean ± SD, digoxin 0.5 mg alone (placebo)) [ng·h/mL]	AUC(0-t) (clinical [1]; [4]) [ng·h/mL]	Cmax (clinical [1]; [4]) [ng/mL]	Cmax (clinical [1]; po, mean ± SD, digoxin 0.5 mg oral single dose alone (placebo; lisinopril 20 mg co-administered)) [ng/mL]	Tmax, median [2] [h]	AUC0-12 increase (clinical [3]) [%]	Cmax increase (clinical [3]) [%]	Tmax (clinical [3]) [h]	change in the rate of absorption (from Tmax) (clinical [3])	individual decreases in AUC0-12, 3 of 17 subjects (clinical [3])	individual increases in AUC0-12, remaining 14 subjects (clinical [3])	share of the 14 subjects with an increase in AUC0-12 that had an increase 25% (11 subjects) (clinical [3]) [%]	Tmax (clinical [3]; 20 mg) [h]	AUC(0-t) (clinical [3]; 20 mg, mean ± SD) [ng·h/mL]	AUC(0-t) (clinical [3]; [5]) [ng·h/mL]	AUC(0-t) (clinical [3]; [6]) [ng·h/mL]	Cmax (clinical [3]; [5]) [ng/mL]	Cmax (clinical [3]; [6]) [ng/mL]
C[C@H]1O[C@@H](O[C@H]2[C@@H](O)C[C@H](O[C@H]3[C@@H](O)C[C@H](O[C@H]4CC[C@@]5(C)[C@H](CC[C@@H]6[C@@H]5C[C@@H](O)[C@]5(C)[C@@H](C7=CC(=O)OC7)CC[C@]65O)C4)O[C@@H]3C)O[C@@H]2C)C[C@H](O)[C@@H]1O [Digoxin, digoxin]	3	9.14 ± 2.03	8.91	2.38	2.5 ± 0.71	1													
NCCCC[C@H](N[C@@H](CCc1ccccc1)C(=O)O)C(=O)N1CCC[C@H]1C(=O)O [Lisinopril, lisinopril]							40	50	7	no apparent change	6.17-16.1%	2.98-140%	79	7.5	690 ± 207	661	923	83.6	126
